The results in this text go back to US20240199648A1, “MAP4K1 INHIBITORS” (Blueprint Medicines Corporation, priority 2021, published 2024).

A word on the IC50: it is the concentration that gives 50% inhibition.

In this assay the target is T1, MAP4K1 (HPK1) (Homo sapiens, UniProt Q92918).
T1 construct: purchased Invitrogen
T1 sequence (Q92918 whole entry): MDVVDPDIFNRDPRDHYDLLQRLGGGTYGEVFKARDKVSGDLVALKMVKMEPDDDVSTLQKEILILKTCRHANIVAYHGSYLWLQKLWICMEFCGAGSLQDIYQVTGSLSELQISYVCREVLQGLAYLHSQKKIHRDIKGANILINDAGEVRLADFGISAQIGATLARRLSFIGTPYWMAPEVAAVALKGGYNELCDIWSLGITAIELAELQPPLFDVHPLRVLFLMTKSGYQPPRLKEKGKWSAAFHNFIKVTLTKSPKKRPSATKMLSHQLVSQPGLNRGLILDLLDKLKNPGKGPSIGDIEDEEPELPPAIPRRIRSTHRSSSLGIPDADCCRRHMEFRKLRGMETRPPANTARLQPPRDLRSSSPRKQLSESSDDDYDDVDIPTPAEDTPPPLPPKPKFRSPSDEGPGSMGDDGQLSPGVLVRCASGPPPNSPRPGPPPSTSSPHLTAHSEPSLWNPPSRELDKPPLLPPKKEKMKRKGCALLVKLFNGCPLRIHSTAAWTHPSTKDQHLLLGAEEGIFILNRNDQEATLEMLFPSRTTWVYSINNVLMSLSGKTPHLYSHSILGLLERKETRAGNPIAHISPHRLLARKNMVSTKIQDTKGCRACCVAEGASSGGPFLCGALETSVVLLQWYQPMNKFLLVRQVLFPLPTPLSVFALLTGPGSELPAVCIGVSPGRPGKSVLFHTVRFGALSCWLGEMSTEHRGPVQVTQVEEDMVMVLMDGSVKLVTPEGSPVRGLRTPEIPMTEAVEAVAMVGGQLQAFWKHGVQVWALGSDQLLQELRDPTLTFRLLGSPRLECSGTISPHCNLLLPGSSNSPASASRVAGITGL
Description: Inhibition of MAP4K1 biochemical enzymatic activity (EZReader 2 electrophoretic mobility shift assay). To be noted: HPK1 (Invitrogen), S6K2tide 1.5 μM, 120 min; ATP 26 μM or 1000 μM (not stated which). The text has this:
MAP4K1 (HPK1) and relevant off-target enzymatic activity was monitored using the Perkin Elmer electrophoretic mobility shift technology platform—the EZReader 2. […] Within the linear, steady-state phase of the kinase enzymatic reaction, the mixed pool of phosphorylated (product) and non-phosphorylated (substrate) peptides was passed through the microfluidic system of the PerkinElmer EZ Reader 2, under an applied electric potential difference. The presence of the phosphate group on the product peptide provided a difference in mass and charge between that of the substrate peptide, resulting in a separation of the substrate and product pools in the sample (Perrin et al. 2010). As the product and substrate peptide mixture passes the lasers within the instrument, these pools are detected (λex=488 nm, λem=568 nm) and resolved as separate peaks. The ratio between these peaks reflects the activity of the compound at that concentration, in that well, under those conditions.
Inhibitors were dissolved in 100% DMSO at a stock concentration of 10 mM. A 100×, 10-point, 4-fold serial dilution of each inhibitor was created in 100% DMSO either manually or on a Hamilton STAR liquid handler, starting at a relevant concentration, usually 1 mM. A volume of 0.130 μL of each concentration was transferred to the relevant wells of a 384-well plate (Greiner 781 201) in diplicate using a TTPLabtech Mosquito nano-litre dispenser. Using a Multidrop Combi, the remaining constituents of the kinase reaction were added to the 130 nL of dosed compound as follows (see table below for final reaction details):
Enzyme activity assays at the ^APPKM for ATP or 1 mM ATP: In each well of a 384-well plate, 0.1-15 nM of untreated enzyme was incubated in a total of 13 μL of buffer (100 mM HEPES pH 7.5, 0.015% Brij 35, 10 mM MgCl2, 1 mM DTT) with 1.5 μM fluorescent peptid and 20-1000 μM ATP, at 25° C., for 60-180 minutes in the presence or absence of a dosed concentration series of compound (1% DMSO final concentration). The kinase reactions were stopped by the addition of 70 μl of Stop buffer (100 mM HEPES pH 7.5, 0.015% Brij 35, 35 mM EDTA and 0.2% of Coating Reagent 3 (Caliper Lifesciences)). The plates were read on a Caliper EZReader 2 as described above.
With `C[C@@H]1OC(=O)c2ccc(Nc3cc4c(C(C)(C)N)cnc(O[C@@H]5CN(C(=O)C6CC6)[C@H]5C)c4cn3)nc2[C@H]1C` [Compound 45], the IC50 came to 0.16 nM.
In the case of `COC[C@@](C)(N)c1cnc(O[C@H]2C[C@H](C(=O)N(C)C)C2)c2cnc(Nc3ccc4c(n3)[C@@H](C)[C@H](C)OC4=O)cc12` [Compound 124] it was 0.26 nM; in that of `C[C@@H]1OC(=O)c2ccc(Nc3cc4c(C(C)(C)N)cnc(O[C@H]5C[C@@H](C(=O)N6CC(F)C6)C5)c4cn3)nc2[C@H]1C` [Compound 84], 0.24 nM.
The result for `C[C@@H]1OC(=O)c2ccc(Nc3cc4c(C(C)(C)N)cnc(OC5CN(C(=O)C6(O)CC6)C5)c4cn3)nc2[C@H]1C` [Compound 55] reads 0.16 nM.
Take `CC[C@H](N)c1cnc(O[C@H]2C[C@@H](C(=O)N3CC(OC)C3)C2)c2cnc(Nc3ccc4c(n3)[C@@H](C)C(C)(C)OC4=O)cc12` (single isomer, unassigned) [Compound 126]: the IC50 came out at 1.81 nM.
In the case of `C[C@@H]1c2nc(Nc3cc4c(C(C)(C)N)cnc(OC[C@@H]5C[C@H]5C(=O)N(C)C)c4cn3)ccc2C(=O)OC1(C)C` (single isomer, unassigned) [Compound 104] it was 0.2 nM; in that of `C[C@@H]1c2nc(Nc3cc4c(C(C)(C)N)cnc(OC5CN(C(=O)[C@@H]6CCCO6)C5)c4cn3)ccc2C(=O)OC1(C)C` [Compound 90], 0.18 nM.
The result for `C[C@@H]1c2nc(Nc3cc4c(C(C)(C)N)cnc(NC5CN(C(=O)C6CC6)C5)c4cn3)ccc2C(=O)OC1(C)C` [Compound 42] reads 0.33 nM.
Take `COC[C@@](C)(N)c1cnc(O[C@@H]2CN(C(=O)C3CC3)[C@H]2C)c2cnc(Nc3ccc4c(n3)[C@@H](C)[C@H](C)OC4=O)cc12` [Compound 91]: the IC50 came to 0.31 nM.
In the case of `C[C@@H]1c2nc(Nc3cc4c(C(C)(C)N)ccc(OCCOC(=O)N(C)C)c4cn3)ccc2C(=O)OC1(C)C` [Compound 114] it was 0.07 nM; in that of `CC(=O)N1CC(Oc2ncc(C(C)(C)N)c3cc(Nc4ccc5c(n4)C4(CC4)C(C)(C)OC5=O)ncc23)C1` [Compound 30], 0.2 nM; in that of `CC[C@@](C)(N)c1cnc(OC2CN(C(C)=O)C2)c2cnc(Nc3ccc4c(n3)[C@@H](C)C(C)(C)OC4=O)cc12` [Compound 32], 0.17 nM.
For `COC(=O)N1CC[C@@H](Oc2ncc(C(C)(C)N)c3cc(Nc4ccc5c(n4)[C@@H](C)[C@H](C)OC5=O)ncc23)C1` [Compound 36], the IC50 is 0.65 nM.
The result for `C[C@@H]1OC(=O)c2ccc(Nc3cc4c(C(C)(C)N)cnc(OC5CN(C(=O)[C@H]6CCOC6)C5)c4cn3)nc2[C@H]1C` [Compound 73] reads 0.32 nM.
The result for `C[C@@H]1OC(=O)c2ccc(Nc3cc4c(C(C)(C)N)cnc(OC5CN(C(=O)[C@H]6CC6(C)C)C5)c4cn3)nc2[C@H]1C` [Compound 69] reads 0.14 nM; that for `CC(=O)N1CC(Oc2ncc(C(C)(C)N)c3cc(Nc4ccc5c(n4)C(C)(C)COC5=O)ncc23)C1` [Compound 110], 0.62 nM; that for `CO[C@H](C)C(=O)N1CC(Oc2ncc(C(C)(C)N)c3cc(Nc4ccc5c(n4)[C@@H](C)C(C)(C)OC5=O)ncc23)C1` (single isomer, unassigned) [Compound 88], 0.21 nM.
On to `CC[C@@H](N)c1cnc(OC2CN(C(=O)[C@@H]3C[C@@H]3F)C2)c2cnc(Nc3ccc4c(n3)[C@@H](C)[C@H](C)OC4=O)cc12` (single isomer, unassigned) [Compound 58], for which the IC50 was determined as 0.75 nM.
Turning to `CC(=O)N1CC[C@H](Oc2ncc(C(C)(C)N)c3cc(Nc4ccc5c(n4)[C@@H](C)[C@H](C)OC5=O)ncc23)C1` [Compound 25], the IC50 stood at 1.38 nM.
The result for `C[C@@H]1OC(=O)c2ccc(Nc3cc4c(C(C)(C)N)cnc(O[C@H]5CCN(C(=O)C6CC6)C5)c4cn3)nc2[C@H]1C` [Compound 50] reads 0.32 nM; that for `CCC(=O)N1CC(Oc2ncc(C(C)(C)N)c3cc(Nc4ccc5c(n4)C4(CC4)C(C)(C)OC5=O)ncc23)C1` [Compound 43], 0.22 nM; that for `C[C@@H]1c2nc(Nc3cc4c(C(C)(C)N)cnc(OC[C@H]5C[C@H]5C(=O)N(C)C)c4cn3)ccc2C(=O)OC1(C)C` (single isomer, unassigned) [Compound 106], 0.39 nM.
In the case of `C[C@@H]1OC(=O)c2ccc(Nc3cc4c(C(C)(C)N)cnc(OC5CN(C(=O)[C@@H]6CCOC6)C5)c4cn3)nc2[C@H]1C` [Compound 74] it was 0.36 nM.
The result for `CC(=O)N1CC(Oc2ncc(C(C)(C)N)c3cc(Nc4ccc5c(n4)[C@@H](C)COC5=O)ncc23)C1` (single isomer, unassigned) [Compound 18] reads 3.06 nM.
Consider `C[C@@H]1OC(=O)c2ccc(Nc3cc4c(C(C)(C)N)cnc(O[C@H]5C[C@@H](C(=O)N6CC(F)(F)C6)C5)c4cn3)nc2[C@H]1C` [Compound 98], for which the IC50 was 0.19 nM.
In the case of `C[C@@H]1c2nc(Nc3cc4c(C(C)(C)N)cnc(OC5CN(C(=O)C6(C(F)(F)F)CC6)C5)c4cn3)ccc2C(=O)OC1(C)C` [Compound 103] it was 0.24 nM; in that of `C[C@@H]1c2nc(Nc3cc4c(C(C)(C)N)cnc(OC5CN(C(=O)C6(O)CC6)C5)c4cn3)ccc2C(=O)OC1(C)C` [Compound 78], 0.43 nM; in that of `C[C@@H]1C[C@@H]1C(=O)N1CC(Oc2ncc(C(C)(C)N)c3cc(Nc4ccc5c(n4)[C@@H](C)[C@H](C)OC5=O)ncc23)C1` [Compound 44], 0.12 nM.
In the case of `CC(=O)N1CC(Oc2ncc(C(C)(C)N)c3cc(Nc4ccc5c(n4)C(C)(C)OC5=O)ncc23)C1` [Compound 109] it was 4 nM; in that of `C[C@@H]1c2nc(Nc3cc4c(C(C)(C)N)cnc(OC5CN(C(=O)[C@@H]6C[C@@H]6C)C5)c4cn3)ccc2C(=O)OC1(C)C` [Compound 67], 0.2 nM.
The result for `C[C@@H]1c2nc(Nc3cc4c(C(C)(C)N)cnc(OC[C@H]5C[C@@H]5C(=O)N(C)C)c4cn3)ccc2C(=O)OC1(C)C` (single isomer, unassigned) [Compound 105] reads 0.2 nM.
In the case of `C[C@@H]1c2nc(Nc3cc4c(C(C)(C)N)cnc(OC5CN(C(=O)C6(C)CC6)C5)c4cn3)ccc2C(=O)OC1(C)C` [Compound 71], the IC50 amounted to 0.27 nM.
In the case of `C[C@@H]1C[C@@H]1C(=O)N1CC(Oc2ncc(C(C)(C)N)c3cc(Nc4ccc5c(n4)[C@@H](C)C(C)(C)OC5=O)ncc23)C1` [Compound 64] it was 0.16 nM; in that of `CC(=O)N1CC[C@@H](Oc2ncc(C(C)(C)N)c3cc(Nc4ccc5c(n4)[C@@H](C)[C@H](C)OC5=O)ncc23)C1` [Compound 24], 0.89 nM; in that of `CCOC(=O)N1CC(Oc2ncc(C(C)(C)N)c3cc(Nc4ccc5c(n4)[C@@H](C)[C@H](C)OC5=O)ncc23)C1` [Compound 37], 0.15 nM.
In the case of `COC(=O)N1CC(Oc2ncc(C(C)(C)N)c3cc(Nc4ccc5c(n4)[C@@H](C)[C@H](C)OC5=O)ncc23)C1` [Compound 27] it was 0.3 nM; in that of `C[C@@H]1OC(=O)c2ccc(Nc3cc4c(C(C)(C)N)cnc(OC5CN(C(=O)[C@@H]6C[C@@H]6C)C5)c4cn3)nc2[C@H]1C` [Compound 46], 0.23 nM.
The result for `COC(=O)N1CC[C@H](Oc2ncc(C(C)(C)N)c3cc(Nc4ccc5c(n4)[C@@H](C)[C@H](C)OC5=O)ncc23)C1` [Compound 35] reads 0.3 nM; that for `CC(=O)N1CCC[C@H]1COc1ncc(C(C)(C)N)c2cc(Nc3ccc4c(n3)[C@@H](C)C(C)(C)OC4=O)ncc12` [Compound 117], 2.02 nM.
